What was measured:
[1] = tested on: LPS-induced airway inflammation; assay: LPS-induced airway inflammation in rats; assay type: in vivo, Male Fischer 344 rats
Protocol: Example 52 was evaluated in an LPS-induced airway inflammation model in rats. Male Fischer 344 rats (n 8/group) were treated with either vehicle or test article by intratracheal instillation in […] volume 1 hour prior to LPS challenge. Animals were then exposed to LPS by nose-only inhalation exposure for 10 minutes at 5 mg/m^3 resulting in an estimated 5 μg lung deposition. Animals were sacrificed 4 hours after LPS exposure. Lungs were lavaged for bronchoalveolar lavage cell differentials and cytokine analysis by Luminex multiplex immunoassay.

[2] = tested on: tobacco-smoke-induced airway inflammation; assay: Tobacco smoke model of airway inflammation in mice; assay type: in vivo, female C3H mice; conditions: mean ± s.e.m.
Protocol: Vehicle and test articles are delivered by intratracheal instillation in 10% ethanol water to animals anesthetized with 3-5% isoflurane (n=8 animals per test article group). All compounds will be delivered on a daily (5 days per week) schedule for 3 weeks during the smoke exposures. Mice were exposed to cigarette smoke for 6 hours per day, 5 days per week for 3 weeks, in H1000 or H2000 chambers. Type 2R4F research cigarettes (Kentucky Tobacco Research and Development Center) were used in the study. Total particulate material (TPM) exposure was kept at […] for the first week to allow animals to reduce adverse effects during adaptation to smoke exposure. TPM exposure was maintained between 100 and 250 mg TPM/m^3 during the remainder of the study. After 3 weeks, animals were euthanized and bronchoalveolar lavage fluid was obtained for cell differentials and cytokine analysis by Luminex multiplex immunoassay.

[3] = tested on: Ascaris suum antigen-induced bronchoconstriction and airway hyperreactivity; assay: Ascaris suum-induced pulmonary responses in sheep; assay type: in vivo; conditions: for Effect on late phase bronchoconstriction and development of airway hyperreactivity: duration of action regimen
Protocol: (§1) One breath unit is defined as one breath of a 1% w/v carbachol solution. Test article was administered either by a pre-dosing or duration of action protocol. In the pre-dosing regimen, animals were dosed once daily for four days, with the last dose administered 1 hr before antigen. In the duration of action regimen, animals were dosed once daily for four days, with the last dose administered 24 hours before antigen. Test article, Ascaris antigen, and carbachol were administered by nebulized aerosol to intubated sheep.

[4] = tested on: ovalbumin-induced lung inflammation; assay: Mouse ovalbumin model of lung inflammation; assay type: in vivo, Mice (Balb/c); conditions: 3.0 mg/kg IT, 1x/day day 14 and 15; mouse OVA
Protocol: Mice (Balb/c) were immunized by intraperitoneal injection of ovalbumin (10 μg OVA suspended in 2 mg aluminum hydroxide) on day 0 and 7. One group was sensitized and treated with vehicle (NSV). One group was immunized with sterile water only and treated with vehicle, e.g. to serve as a nonsensitized (negative) control (Vehicle). […] On days 14 and 15, the animals were exposed to OVA by inhalation (3 h; 5 mg/m^3). Forty eight hours following the last OVA challenge (day 17) mice were sacrificed. Bronchoalveolar lavage (BAL) was taken from each animal to collect cells and fluid. Cell numbers and differentials were calculated from BAL.

[5] = Stability of steroid C-21 esters, carbonates and carbamates in rat lung homogenate; conditions: for Mean [Parent] (nM) at 2 hrs, 37° C.: parent compound; for Mean % compound remaining at 2 hrs, 37° C.: 900 nM, n=3
Protocol: Lungs from Fischer 344 rats were obtained fresh by overnight delivery at 4° C. from BioReclamation Inc. (Hicksville, N.Y.). Lungs were weighed and homogenized in a 1:3 w/v ratio with sterile phosphate buffered saline (PBS, 10 mM, pH 7.4) in glass vials on ice. After centrifugation at 3,000×g for 10 min at 4° C. the supernatant was decanted into sterile conical tubes and placed on ice. The total protein content of the supernatant was determined by the bicinchoninic acid (BCA) method (Pierce Biotechnology, Rockford, Ill.), using bovine serum albumin (BSA) as the standard. Lung homogenates were prepared to a final concentration of 1 mg total protein/mL in 10 mM PBS, pH 7.4.
Heat-inactivation was achieved by incubation at 80° C. for 30 min, after which the homogenate was allowed to cool to room temperature, stored overnight at 4° C. The homogenate was used for the assay and standard curve preparations. Before use, each homogenate preparation was equilibrated for 15 min in a 37° C. water bath. […] DMSO (2.7 uL) added to 3 mL of temperature-equilibrated homogenate served as a control. Aliquots (100 uL) of homogenate+compound were added to 400 μL quenching solution consisting of 100% HPLC-grade acetonitrile+500 ng/mL glyburide for the zero time point (n=3 for each time point).
The glyburide served as an internal LC/MS/MS standard. The remainder of each drug+homogenate solution was aliquoted into a 96-well tissue culture plates. After an additional 30 min and 120 min incubation at 37° C., 100 μL aliquots were added to 400 μL quenching solution. Denatured proteins in the quenching solution were separated by centrifugation at 3000×g for 2 min at 4° C., and 160 μL of the supernatants were transferred to new 96-well plate for analysis by LC/MS/MS. Collection plates were covered with plastic film and were kept on ice. For storage, covered plates were and kept stored at −80° C. until further use.
An aliquot of 50 μL of each sample was diluted with 50 μL of water containing internal standard at 4° C. The diluted samples were then centrifuged for 20 minutes at 3000 rpm at 4° C. An aliquot of 20 μL of the solution was injected into the TSQ Ultra Quantum.
LC/MS/MS system. The compounds were separated by HPLC using a HyPurity C18 HPLC column (30×2.1 mm, 5μ) from ThermoHypersil. A Multiplex LX-2 HPLC system (Cohesive Technologies, Franklin, Mass.) with two identical Agilent 1100 series binary pumps (P/N G1312A) were used for elution and separation. Samples were maintained at 4° C. in an HTS Pal autosampler (LEAP Technologies, Carrboro, N.C.) in order to reduce any potential spontaneous hydrolysis of the compounds before injection onto the HPLC. The analytes were eluted using the following mobile phases; Mobile phase A contained 1% acetonitrile in 10 mM ammonium formate aqueous solution with 1% formic acid. Mobile phase B contained 80% acetonitrile in 10 mM ammonium formate with 1% formic acid. The HPLC elution program used to elute the analytes was as follows:
The samples were further analyzed by tandem mass spectrometry using a TSQ Quantum Ultra triple quadrupole mass spectrometer (Thermo Finnigan, San Jose, Calif.) using a selective reaction monitoring (SRM) scan type. The mass spectrometry parameters used were as follows:
Nine-point standard curves for each test compound were prepared and analyzed in heat-inactivated lung homogenate. […] The data expressed in Table 2 represent the mean (n=3) percent remaining compound in both types of homogenate at 2 hours, 37° C.

[6] = tested on: ragweed-induced bronchoconstriction; assay: Ragweed-induced bronchoconstriction in dogs; assay type: in vivo, beagle dogs; conditions: 10 μg/kg by inhalation 30 minutes before ragweed; n=4; mean ± s.e.m.
Protocol: The compound of Example 52 was assesed for bronchodilator activity in a ragweed-induced bronchoconstriction model in beagle dogs. Dogs were mechanically ventilated during each experiment. Airflow and tidal volume were measured using a differential pressure transducer located in front of the endotracheal tube. An esophageal balloon catheter placed in the esophagus was used to determine transpulmonary pressure. Pulmonary resistance and dynamic lung compliance were calculated from the simultaneous measurement of transpulmonary pressure and respiratory flow. The canine exposure system was designed to expose an anesthetized animal via an intubation tube. Dogs were administered vehicle or test article by inhalation 30 minutes before ragweed antigen exposure (n=4). Dogs were challenged with ragweed antigen (ragweed short, Ambrosia artemisifolia, Greer, Lenoir, N.C.) by inhalation (5 breaths). Immediately following ragweed challenge, changes in pulmonary resistance and compliance were measured for up to 30 minutes.

[7] = Drug levels in plasma, BALF and lung after IT administration in the rat
Protocol: Compounds of Examples 52 and 83 were formulated for intratracheal (IT) dosing in 10% EtOH, 90% Sterile Water, and dosed in male Sprague-Dawley rats at 3 mg/kg (Example 52) and 1 mg/kg (Example 83). Each dosing group consisted of 3 male, naïve purebred Sprague-Dawley rats. At dosing, the animals weighed ˜0.30 kg. The animals were fasted overnight prior to dose administration and up to 2 hr after dosing. The compounds were administered IT using a Penn Century Microsprayer (Model 1A-1B).
Blood samples were collected at 0.5, 2, and 4 hours post-dose. Each blood sample (0.5-0.6 mL per sample) was collected via the orbital sinus (following anesthesia for BAL procedure) into tubes containing EDTA anti-coagulant into containers surrounded by dry ice at 0.5, 2 and 4 hr (mean, n=6). Blood samples were stored at −20±5° C. until shipped for analysis.
The animals were anesthetized with an intramuscular (IM) injection of a ketamine/xylazine/acepromazine (80/10/2 mg/kg) cocktail at a dose volume of 1.1 mL/kg. A cannula (modified Bard® infant feeding tube) was inserted into the trachea. Warmed sterile saline was injected into the lungs. The lungs were gently massaged by palpation of the chest for approximately 45 seconds. The fluid (BALF) was recovered and placed on ice. The procedure was repeated two more times, and all three BALF samples pooled. The fluid was centrifuged under refrigerated conditions at 350 g for 10 minutes. The supernatant and cell pellet were collected and stored at approximately −70° C. until shipped for analysis.
Immediately following each BAL procedure, the lungs from each animal were removed, blotted dry, weighed, and stored frozen at −70° C. until shipped for analysis.
An LC/MS/MS method was used to measure the concentration of compound in plasma.
Add 3×w/v of 1×PBS buffer (90:10-PBS:ACN) to each lung tissue. Homogenize the sample w/Polytron (PT1200) and take 50 uL of supernatant and inject to LC/MSMS.
An aliquot of 50 μL of each plasma sample was treated with 100 mL of acetonitrile (ACN) containing internal standard. After the protein precipitation, an aliquot of 100 μL of the supernatant was transferred to a clean 96-well plate and mixed with 100 μL of water. An aliquot of 30 μL of the above solution was injected to the TSQ Ultra Quantum LC/MS/MS system.
A HyPurity C18 HPLC column (30×2.1 mm, 5μ) from ThermoHypersil (Part #: 22105-032130) was used. Mobile phase A contained 1% acetonitrile in 10 mM ammonium formate aqueous solution with 1% formic acid. Mobile phase B contained 80% acetonitrile in 10 mM ammonium formate with 1% formic acid. An Agilent 1100 series binary pump (P/N G1312A Bin Pump) was used for elution and separation. HTS Pal autosampler from LEAP Technologies, Carrboro, N.C. was used.
TSQ Quantum Ultra triple quadrupole mass spectrometer from Thermo Finnigan, San Jose, Calif. was used in selective reaction monitoring (SRM) operation mode, Tune file:

[8] = tested on: carbachol-induced bronchoconstriction; assay: Carbachol-induced bronchoconstriction in sheep; assay type: in vivo; conditions: Example 52 4.7 mg, Salmeterol 2.5 mg, mean ± s.e.m, n=4
Protocol: as §1, with “Bronchoconstriction was evaluated” for “One breath unit is defined”, “a function” for “one breath”, “increased pulmonary resistance following” for “a 1% w/v”, “challenge. […]” for “solution.”, “carbachol challenge.” for “antigen.”, “article” for “article, Ascaris antigen,”

[9] = 0.51 mg/kg i.t. daily, 3 weeks smoke
[10] = Inactive (heat-inactivated) rat lung homogenate
[11] = analyte after IT administration of Example 83, 1 mg/kg, 0.5 hr
[12] = analyte after IT administration of Example 83, 1 mg/kg, 2.0 hr
[13] = analyte after IT administration of Example 83, 1 mg/kg, 4.0 hr

With `CC(C)C(=O)OCC(=O)[C@@]12O[C@H](C3CCCCC3)O[C@@H]1C[C@H]1[C@@H]3CCC4=CC(=O)C=C[C@]4(C)[C@H]3[C@@H](O)C[C@@]12C` [Ciclesonide, ciclesonide] the Neutrophils ([1]; 3 mg/kg intratracheal, 1 hour prior to LPS, rat BAL, mean ± s.e.m.) was 9.7 ± 0.89 × 10^4/ml, the TNFα ([1]; 3 mg/kg intratracheal, rat BAL, mean ± s.e.m.) was 629.2 ± 330.0 pg/mL and the “Inhibition of LPS-induced airway inflammation measured as neutrophil influx and TNFα production” value ([1]; at doses tested, versus vehicle control) was “significantly inhibit”. For the same compound, the IL-1α ([2]; 0.31 mg/kg i.t.) was 5.25 ± 0.85 pg/mL, the MIP-1α ([2]; 0.31 mg/kg i.t.) was 8.31 ± 1.17 pg/mL and the Neutrophils ([2]; 0.31 mg/kg i.t.) was 13.9 ± 2.1 ×10^4/ml. The IL-1α [2, 9] was 5.50 ± 0.96 pg/mL, the MIP-1α [2, 9] was 10.02 ± 1.75 pg/mL and the Neutrophils [2, 9] was 15.0 ± 1.5 ×10^4/ml. For the same compound, the “Bronchoconstriction, Lung Resistance (% Increase)” value (from here on “Bronchoconstriction … (% Increase)”) ([3]; Duration of action regimen (last dose 24 hours before antigen), Post-Ascaris, Example 52 4.7 mg, ciclesonide 2.2 mg, salmeterol xinafoate 2.5 mg, n=4) was 416 % Increase, the “Bronchoconstriction … (% Increase)” value ([3]; Duration of action regimen, 1 hour, n=4) was 224 % Increase and the “Bronchoconstriction … (% Increase)” value ([3]; Duration of action regimen, 2 hours, n=4) was 146 % Increase. For the same compound, the “Bronchoconstriction … (% Increase)” value ([3]; Duration of action regimen, 3 hours, n=4) was 69 % Increase, the “Bronchoconstriction … (% Increase)” value ([3]; Duration of action regimen, 4 hours, n=4) was 21 % Increase and the “Bronchoconstriction … (% Increase)” value ([3]; Duration of action regimen, 5 hours, n=4) was 44 % Increase. The “Bronchoconstriction … (% Increase)” value ([3]; Duration of action regimen, 6 hours, n=4) was 66 % Increase, the “Bronchoconstriction … (% Increase)” value ([3]; Duration of action regimen, 6.5 hours, n=4) was 71 % Increase and the “Bronchoconstriction … (% Increase)” value ([3]; Duration of action regimen, 7 hours, n=4) was 65 % Increase. The “Bronchoconstriction … (% Increase)” value ([3]; Duration of action regimen, 7.5 hours, n=4) was 62 % Increase, the “Bronchoconstriction … (% Increase)” value ([3]; Duration of action regimen, 8 hours, n=4) was 50 % Increase and the “Hyperreactivity PC400” value ([3]; Duration of action regimen, Baseline, Example 52 4.7 mg, ciclesonide 2.2 mg, salmeterol xinafoate 2.5 mg, n=4) was 28.3 carbachol breath units. For the same compound, the “Hyperreactivity PC400” value ([3]; Duration of action regimen, Post-Antigen, n=4) was 21.5 carbachol breath units, the “Bronchoconstriction … (% Increase)” value ([3]; Predosing regimen (last dose 1 hr before antigen), Post-Ascaris, Example 52 4.7 mg, ciclesonide 2.2 mg, n=2) was 305 % Increase and the “Bronchoconstriction … (% Increase)” value ([3]; Predosing regimen, 1 hour, n=2) was 142 % Increase. The “Bronchoconstriction … (% Increase)” value ([3]; Predosing regimen, 2 hours, n=2) was 44 % Increase, the “Bronchoconstriction … (% Increase)” value ([3]; Predosing regimen, 3 hours, n=2) was 8 % Increase and the “Bronchoconstriction … (% Increase)” value ([3]; Predosing regimen, 4 hours, n=2) was 6 % Increase. The “Bronchoconstriction … (% Increase)” value ([3]; Predosing regimen, 5 hours, n=2) was 14 % Increase, the “Bronchoconstriction … (% Increase)” value ([3]; Predosing regimen, 6 hours, n=2) was 28 % Increase and the “Bronchoconstriction … (% Increase)” value ([3]; Predosing regimen, 6.5 hours, n=2) was 12 % Increase. For the same compound, the “Bronchoconstriction … (% Increase)” value ([3]; Predosing regimen, 7 hours, n=2) was 28 % Increase, the “Bronchoconstriction … (% Increase)” value ([3]; Predosing regimen, 7.5 hours, n=2) was 33 % Increase and the “Bronchoconstriction … (% Increase)” value ([3]; Predosing regimen, 8 hours, n=2) was 15 % Increase. For the same compound, the “Hyperreactivity PC400” value ([3]; Predosing regimen, Baseline, Example 52 4.7 mg, ciclesonide 2.2 mg, n=2) was 26.5 carbachol breath units, the “Hyperreactivity PC400” value ([3]; Predosing regimen, Post-Antigen (24 hours after challenge), n=2) was 25.5 carbachol breath units and the “Effect on late phase bronchoconstriction and development of airway hyperreactivity” value [3] was “reduced efficacy”. For the same compound, the “Eosinophils in BAL, Mean” value [4] was 60170 mL⁻¹, the “Neutrophils in BAL, Mean” value [4] was 4790 mL⁻¹ and the “Mean [Parent] (nM) at 2 hrs, 37° C.” value ([5]; Active homogenate) was 18 nM. The “Mean % compound remaining at 2 hrs, 37° C.” value (“Mean % compound remaining” for short) ([5]; Active rat lung homogenate) was 12%, the “Mean % compound remaining” value [5, 10] was 88% and the “Mean [Parent] (nM) at 2 hrs, 37° C.” value ([5]; Inactive homogenate) was 154 nM. The “Pulmonary Resistance (% of Baseline)” value [6] was 302.3 ± 24.8 % of Baseline.
With `CCN(CC)Cc1ccc(C(=O)OCC(=O)[C@@]23O[C@H](C4CCCCC4)O[C@@H]2C[C@H]2[C@@H]4CCC5=CC(=O)C=C[C@]5(C)[C@H]4[C@@H](O)C[C@@]23C)cc1` [Example 30, 4-Diethylaminomethylbenzoic acid [[11β,16α]-[[((R)-cyclohexylmethylene)bis(oxy)]-11-hydroxypregna-1,4-diene-3,20-dion-21-yl]]ester] the “Mean [Parent] (nM) at 2 hrs, 37° C.” value ([5]; Active homogenate) was 102 nM, the “Mean % compound remaining” value ([5]; Active rat lung homogenate) was 46% and the “Mean % compound remaining” value [5, 10] was 51%. For the same compound, the “Mean [Parent] (nM) at 2 hrs, 37° C.” value ([5]; Inactive homogenate) was 109 nM and the melting point was 123.5 °C (dec.).
In the case of `OCc1cc(C(O)CNCCCCCCOCCCCc2ccccc2)ccc1O` (stereo not drawn) [salmeterol], the “Plasma Conc” value ([7]; analyte after IT administration of Example 52, 3 mg/kg, 0.5 hr) is reported as “BLQ”, the “Plasma Conc” value ([7]; analyte after IT administration of Example 52, 3 mg/kg, 2.0 hr) is reported as “BLQ” and the “Plasma Conc” value ([7]; analyte after IT administration of Example 52, 3 mg/kg, 4.0 hr) is reported as “BLQ”. The “BALF Conc” value [7, 11] was “BLQ”, the “Plasma Conc” value [7, 11] was “BLQ” and the “BALF Conc” value [7, 12] was “BLQ”. For the same compound, the “Plasma Conc” value [7, 12] was “BLQ”, the “BALF Conc” value [7, 13] was “BLQ” and the “Plasma Conc” value [7, 13] was “BLQ”. For the same compound, the “Effect on late phase bronchoconstriction and development of airway hyperreactivity” value [3] was “reduced efficacy”, the “Lung Resistance (% Increase) at 2% Carbachol” value ([8]; Duration of action regimen (last dose 24 hours before carbachol), Ciclesonide 2.2 mg + Salmeterol Xinafoate 2.5 mg) was 594 ± 56 % Increase and the “Lung Resistance (% Increase) at 2% Carbachol” value ([8]; Predosing regimen (last dose 1 hr before carbachol)) was 352 ± 27 % Increase.

— patent publication US20090318396A1, “CORTICOSTEROID LINKED BETA-AGONIST COMPOUNDS FOR USE IN THERAPY” (priority 2008, published 2009)
